# Assay results from US20070082953A1, “Use of l-dopa, derivatives thereof and medicaments comprising said compounds for the prophylaxis of psychotic diseases” (priority 2003, published 2007).
# Tested on: patients with acute schizophrenia
# Assay: Relapse prophylaxis in schizophrenia patients withdrawn from fluphenazine maintenance therapy
# Type: in vivo
# Details: ten clinically stable patients taken off fluphenazine; L-dopa or L-dopa combination preparation given 2 months prior to withdrawal and during the entire withdrawal phase; about 8 of 10 relapses expected within 12 months per literature
# Experimental: Ten patients with acute schizophrenia, who had accordingly received maintenance therapy with fluphenazine for more than one year and were clinically stable, were successively taken off this drug. According to clinical experience (see Gitlin M., Nuechterlein K., Subotnik K. L. et al., Am. J. Psychiatry (2001) 158(11), pp. 1835-42), about 8 of the 10 patients would be expected to suffer a relapse within the following 12 months. Our patients were treated with L-dopa or a combination preparation containing L-dopa for 2 months prior to withdrawal and during the entire withdrawal phase. In these patients, a relapse occurred in only 2 of 10 cases.
structure (smiles),measurement,value
"N[C@@H](Cc1ccc(O)c(O)c1)C(=O)O [L-dopa, 3,4-dihydroxy-L-phenylalanine]",relapse occurred (cases with relapse out of patients treated),2 of 10
